Results reported in patent US7816408B2, “Calcium receptor active compounds” (NPS Pharmaceuticals, Inc., priority 2002, dated 2010).

Legend:
human calcium receptor = target: T1, human calcium receptor (Homo sapiens, UniProt P41180); assay: Activity on calcium receptors: fluo-3 fluorescence in HEK293 cells transfected with human calcium receptor gene; type: cell-based; details: HEK293 cells transfected with plasmid pHuPCaR4.0 (human calcium receptor gene), loaded with fluo-3; 1 mM CaCl2, 1 mM MgCl2
T1 construct: expressed in transfected cells; host or cells: HEK293
T1 sequence (P41180 20-1078): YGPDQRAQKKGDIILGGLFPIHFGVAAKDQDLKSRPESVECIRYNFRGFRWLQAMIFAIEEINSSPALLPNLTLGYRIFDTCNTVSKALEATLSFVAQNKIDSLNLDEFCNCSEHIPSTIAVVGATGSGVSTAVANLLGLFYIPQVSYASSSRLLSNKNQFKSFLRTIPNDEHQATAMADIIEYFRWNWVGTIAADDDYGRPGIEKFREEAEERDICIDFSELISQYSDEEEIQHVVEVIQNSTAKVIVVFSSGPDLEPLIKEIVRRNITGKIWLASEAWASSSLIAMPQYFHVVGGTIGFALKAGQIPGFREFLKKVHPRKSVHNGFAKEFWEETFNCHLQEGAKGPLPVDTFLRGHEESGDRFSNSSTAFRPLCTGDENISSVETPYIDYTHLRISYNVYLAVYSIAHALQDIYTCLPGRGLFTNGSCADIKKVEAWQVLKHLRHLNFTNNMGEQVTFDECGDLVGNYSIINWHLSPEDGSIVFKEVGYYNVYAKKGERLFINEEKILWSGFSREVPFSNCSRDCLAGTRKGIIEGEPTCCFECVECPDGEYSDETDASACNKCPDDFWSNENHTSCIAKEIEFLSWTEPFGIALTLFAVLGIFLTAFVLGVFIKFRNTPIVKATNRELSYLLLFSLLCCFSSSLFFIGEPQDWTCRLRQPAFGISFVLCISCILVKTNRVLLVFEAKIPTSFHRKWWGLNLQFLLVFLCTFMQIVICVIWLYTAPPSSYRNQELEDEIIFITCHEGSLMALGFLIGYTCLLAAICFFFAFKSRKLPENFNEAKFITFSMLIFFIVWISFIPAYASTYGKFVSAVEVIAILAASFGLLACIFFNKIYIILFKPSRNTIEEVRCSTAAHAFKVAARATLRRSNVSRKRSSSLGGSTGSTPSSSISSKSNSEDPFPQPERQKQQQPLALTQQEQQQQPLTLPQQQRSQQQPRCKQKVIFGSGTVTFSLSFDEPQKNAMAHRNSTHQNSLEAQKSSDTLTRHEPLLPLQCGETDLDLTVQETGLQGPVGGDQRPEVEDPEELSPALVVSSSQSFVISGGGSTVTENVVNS
Method in brief: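 HEK293 cells transfected with human calcium receptor plasmid, loaded 1 h at 37 °C with about 5 μM fluo-3/AM. Cells then rinsed into HEPES-buffered HBSS with 1 mM CaCl2 and 1 mM MgCl2. Fluorescence read at 485/540 nm after compound addition.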

normal male SD rats = assay: Plasma Ca^2+ level of rats after single oral administration; type: in vivo; details: rat, mean of six animals, vehicle 10% cyclodextrin (** 1% sodium-CMC); for Plasma Ca^2+ (mmol/l) 1 hr: 1 hr after single oral dose 30 μmol/kg; for Plasma Ca^2+ (mmol/l) 2 hr: 2 hr after single oral dose 30 μmol/kg; for Plasma Ca^2+ (mmol/l) 4 hr: 4 hr after single oral dose 30 μmol/kg; for Plasma Ca^2+ (mmol/l) 8 hr: 8 hr after single oral dose 30 μmol/kg
Method in brief: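 Normal male SD rats (n=6/group) received a single oral dose of 30 μmol/kg in 10% cyclodextrin or, for some compounds, 1% sodium-CMC; vehicle controls received 2.5 ml/kg. Tail blood was drawn pre-dose and at 30 min and 1, 2, 4, 8 and 24 h for plasma Ca^2+ and serum PTH. PTH was compared with vehicle by Steel's test.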

EC50 (human calcium receptor) [µM] | Compound | Plasma Ca^2+ (mmol/l) 0 hr (normal male SD rats; 0 hr = before oral administration of 30 μmol/kg) [mmol/L] | Plasma Ca^2+ (mmol/l) 1 hr (normal male SD rats) [mmol/L] | Plasma Ca^2+ (mmol/l) 2 hr (normal male SD rats) [mmol/L] | Plasma Ca^2+ (mmol/l) 4 hr (normal male SD rats) [mmol/L] | Plasma Ca^2+ (mmol/l) 8 hr (normal male SD rats) [mmol/L] | Plasma Ca^2+ (mmol/l) 23 hr (footnote *c, 24 hr column) (normal male SD rats; 23 hr after single oral dose 30 μmol/kg) | Plasma Ca^2+ (mmol/l) 27 hr (footnote *b, 24 hr) (normal male SD rats; 27 hr after single oral dose 30 μmol/kg)
0.8 | C[C@@H](NCCCCCCSc1ccc(OC(F)(F)F)cc1)c1cccc2ccccc12 [Compound K-2301] | 1.397 | 1.237 | 1.165 | 1.077 | 1.075 | 1.350*^c mmol/l | 
0.071 | COc1cccc(SCCCCN[C@H](C)c2cccc3ccccc23)c1 [Compound K-2269, N-{4-[(3-methoxyphenyl)thio]butyl}-N-[(1R)-1-(1-naphthyl)ethyl]amine] |  | 1.152 | 1.140 | 1.097 | 1.173 |  | 
0.38 | CC(NCCSc1cc(Cl)ccc1Cl)c1cccc(OCc2ccc(Cl)cc2)c1 (racemic) [Compound K-2258, (±)-N-(1-(3-(4-chlorobenzyloxy)phenyl)ethyl)-2-(2′,5′-dichlorophenylthio)ethylamine] |  | 1.317 | 1.227 | 1.133 | 1.207 |  | 
0.34 | C[C@@H](NCCCCCSc1cc(Cl)c(Cl)cc1Cl)c1cccc2ccccc12 [Compound K-2282, N-[(1R)-1-(1-naphthyl)ethyl]-N-{5-[(2,4,5-trichlorophenyl)thio]pentyl}amine] |  | 1.425 | 1.298 | 1.168 | 1.078 |  | 1.230*^b mmol/l
